Patent US20060135624A1, “Natural compound useful for treating diabetes, its preparation and use” (JINGYU LIANG ET AL, priority 2002, published 2006)

Tests used:
[1] = tested on: mouse hyperglycemia induced by Streptozocin; test: Effect of Sequoyitol on mouse hyperglycemia induced by Streptozocin; format: in vivo, Kunming mice
Protocol: 1. Experimental Methods^[7,8] • Among 66 mice, 10 mice were randomly selected as normal group, and the residual mice were administrated with 160 mg/kg Streptozocin by vena caudalis injection, modeled according to methods of documents, and divided into 5 groups according to blood-sugar level, wherein 4 groups were perorally administrated with 25, 50 and 100 mg/kg of Sequoyitol and 75 mg/kg of phenformine according to 0.1 ml/10 g of body weight, respectively, and the normal group and modeling group were administrated with the same volum of distilled water. These administrations were conducted for continuous 18 days. The blood-sugar levels of the mice were separately measured at 6th and 12th day after the administration. At the 18th day, blood was collected by excising eyeballs, serum was separated, and the blood sugar level, insulin level, cholesterol content, triglyceride content, malonaldehyde content, and hepatocuprein activity of serum were measured; liver tissue was homogenated, and the malonaldehyde content and hepatocuprein activity of liver tissue were measured; and pancreatic gland was soaked in 10% formalin, embedded with paraffin, sliced, and dyed with HE.

normal mice [2] = test: General pharmacology in mice; conditions: mouse, in vivo
Description: (§1) • 1. Guidelines for Studying New Drugs (Pharmacy, Pharmacology, Toxicology), Bureau of Drug Administration, the Ministry of Health of the People's Republic of China • 2. Chen Q I, Methodology for Studying Pharmacology of Chinese Medicine, People' Medical Publishing House, 1st Edition, 1993, 118-119 III. Studies on General Pharmacology • The effects of Sequoyitol on general physical signs and spontaneous movement of normal mice, on Pentobarbital hours of sleep of mice, and on respiratory movement, blood pressure, cardiac rhythm and electrocardiogram of rats were observed.

normal mice [3] = test: Test of acute toxicity by oral administration; format: in vivo; conditions: 18.95 g/kg and 9.47 g/kg drenched one time; executed after 7 days
Description: 1) Experimental Method • 20 Normal mice (half male and half female) were divided into two groups (each group had 10 mice), and drenched with 18.95 g/kg and 9.47 g/kg one time, wherein the higher dose reached the maximum concentration and the maximum administration volume. The animals' responses were observed. The mice were executed after 7 days, and their organs were macroscopically observed.

[4] = tested on: mouse hyperglycemia induced by glucose; test: Effect of Sequoyitol on mouse hyperglycemia induced by glucose; format: in vivo, Kunming mice
Protocol: 1. Experimental Method^[4] • 72 Mice were randomly divided into 6 groups, […] according to 0.1 ml/10 g of body weight, respectively, and the normal group and modeling group were administrated with the same volum of distilled water. These administrations were conducted for continuous 7 days. The normal group was administrated with the same volum of physiological saline by injection, while other groups were administrated with […] of glucose by intra-abdominal injection. After 30, 60, 90 and 120 minutes of administration, bloods were collected from venous plexus behind fossa orbitalis, the serums were separated, and the blood-sugar levels were separately detected by glucose oxidase method.

[5] = tested on: blood-sugar level of normal mice; test: Effect of Sequoyitol on blood-sugar level of normal mice; format: in vivo, Kunming mice; conditions: Sequoyitol groups (25, 50, 100 mg/kg) oral 7 days
Protocol: 1. Experimental Method^[3] • 60 Mice were randomly divided into 5 groups, […] according to 0.1 ml/10 g of body weight, respectively, and the normal group was administrated with the same volum of the same volum of distilled water. These administrations were conducted for continuous 7 days. The blood-sugar levels were detected by glucose oxidase method.

[6] = tested on: mouse hyperglycemia induced by alloxan; test: Time-effect relation of Sequoyitol to mouse hyperglycemia induced by alloxan; format: in vivo, Kunming mice; conditions: for blood-sugar level decreased compared to the control group: Sequoyitol 50 mg/kg p.o. 7 days
Protocol: 1. Experimental Methods^[1,2] • Alloxan was administrated to each of 30 mice by caudal vein injection with a dose of 65 mg/kg, and the mice were modeled according to the method of documents, divided into 3 groups according to blood-sugar values, […] according to […] of body weight, and the modeling group was administrated with the same volum of distilled water, separately. These administrations were conducted for continuous 7 days, and the mice were fasted for 2 hours before the last administration, and their blood-sugar levels were detected by glucose oxidase method at 1 2, 3 and 5 hours after the last administration.

[7] = tested on: mouse hyperglycemia induced by adrenalin; test: Effect of Sequoyitol on mouse hyperglycemia induced by adrenalin; format: in vivo, Kunming mice; conditions: for hepatic glycogen level increased compared to the control group: adrenalin model; for blood-sugar level decreased compared to the control group: 30 minutes after adrenalin 0.2 mg/kg i.p.
Protocol: 1. Experimental Methods^[3] • 72 Mice were randomly divided into 6 groups, wherein 4 groups were orally administrated with 25, 50 and 100 mg/kg of Sequoyitol and 10 mg/kg of Glibenclamide according to 0,1 ml/10 g of body weight, respectively, and the normal group and modeling group were administrated with the same volum of distilled water. These administrations were conducted for continuous 7 days. The normal group was administrated with the same volum of physiological saline by injection, while other groups were administrated with 0.2 mg/kg of adrenalin by intra-abdominal injection. The blood-sugar levels were detected by glucose oxidase method after 30 minutes of administration. The livers of the mice were collected, and hepatic glycogen levels were detected by anthrone method.

rats = test: General pharmacology in rats; conditions: rat, in vivo
Description: as §1

[8] = 25 and 50 mg/kg Sequoyitol groups, p.o. 18 days
[9] = Sequoyitol 100 mg/kg p.o. 18 days
[10] = Sequoyitol groups (25, 50, 100 mg/kg p.o. 18 days)
[11] = Sequoyitol 25 mg/kg oral 7 days
[12] = Sequoyitol 100 mg/kg oral 7 days

COC1C(O)C(O)C(O)C(O)C1O (stereo not drawn) [Sequoyitol, 5-O-methyl-myo-inositol]
content of cholesterol in serum compared to the control group [1, 8]: decreased
content of malonaldehyde in liver tissue compared to the control group [1, 8]: significantly decreased
content of triglyceride in serum compared to the control group [1, 8]: significantly decreased
serum insulin level compared to the control group ([1]; 50 and 100 mg/kg Sequoyitol groups, p.o. 18 days): significantly increased
body weight of diabetes mice compared to the control group ([1]; 50 and 100 mg/kg Sequoyitol groups, p.o., since the 7th day): significantly increased
serum insulin level compared to the control group ([1]; Sequoyitol 25 mg/kg p.o. 18 days): increased
body weight of diabetes mice compared to the control group ([1]; Sequoyitol 25 mg/kg p.o., since the 11th day): increased
blood-sugar level decreased compared to the control group ([1]; Sequoyitol 50 mg/kg p.o., 12th day): 121.4 mg/dL
content of cholesterol in serum compared to the control group [1, 9]: significantly decreased
content of malonaldehyde in liver tissue compared to the control group [1, 9]: highly significantly decreased
content of triglyceride in serum compared to the control group [1, 9]: highly significantly decreased
hyalinization of interstitial small vessels (histopathologic examination) [1, 9]: alleviated
serum insulin level increased compared to the control group [1, 9]: 6.53 μlU/ml
activity of hepatocuprein in serum compared to the control group [1, 10]: highly significantly increased
inflammatory cell infiltration (histopathologic examination) [1, 10]: inhibited
number of pancreatic islands and number of cells in pancreatic islands (histopathologic examination) compared to the model group [1, 10]: increased significantly
effect on Pentobarbital hours of sleep of mice (normal mice [2]): did not significantly affect
effect on spontaneous movement of mice (normal mice [2]): did not significantly affect
main organs under macroscopic observation (normal mice [3]): free of abnormality
effect for alleviating hyperglycemia compared with phenformine ([4]; 100 mg/kg Sequoyitol vs 75 mg/kg phenformine): equivalent to that of 75 mg/kg phenformine
glucose-induced hyperglycemia compared to the control group ([4]; 25 and 50 mg/kg Sequoyitol groups, oral 7 days, 30, 60, 90 minutes after i.p. glucose): significantly alleviated
glucose-induced hyperglycemia compared to the control group ([4]; Sequoyitol 100 mg/kg oral 7 days, 30, 60, 90, 120 minutes after i.p. glucose): highly significantly alleviated
blood-sugar level decreased compared to the control group ([4]; Sequoyitol 100 mg/kg oral 7 days, 90 minutes after i.p. glucose): 24.5 mg/dL
blood-sugar level compared with the normal group [5]: not significantly different
effect of alleviating hyperglycemia compared with phenformine ([6]; 60 mg/kg Sequoyitol vs 75 mg/kg phenformine): higher than that of 75 mg/kg phenformine
blood-sugar level decreased compared to the control group ([6]; 1 hour after last administration): 100.0 mg/dL
blood-sugar level decreased compared to the control group ([6]; 2 hours after last administration): 140.7 mg/dL
blood-sugar level decreased compared to the control group ([6]; 3 hours after last administration): 193.9 mg/dL
blood-sugar level decreased compared to the control group ([6]; 5 hours after last administration): 174.6 mg/dL
hepatic glycogen level increased compared to the control group ([7]; Sequoyitol 20 mg/kg (so in the source) oral 7 days): 1.24 mg/g of liver tissue
blood-sugar level decreased compared to the control group [7, 11]: 32.2 mg/dL
hepatic glycogen level increased compared to the control group [7, 11]: 1.76 mg/g of liver tissue
blood-sugar level decreased compared to the control group ([7]; Sequoyitol 50 mg/kg oral 7 days): 35.5 mg/dL
blood-sugar level decreased compared to the control group [7, 12]: 39.9 mg/dL
hepatic glycogen level increased compared to the control group [7, 12]: 1.24 mg/g of liver tissue
effect on blood pressure of rats (rats): did not significantly affect
effect on cardiac rhythm of rats (rats): did not significantly affect
effect on electrocardiogram of rats (rats): did not significantly affect
effect on respiratory movement of rats (rats): did not significantly affect
